SMILES strings stand for the structures. Like-named read-outs stand apart in the source and are kept apart here.

Among the data in patent US4257941A, “Polycyclic nitrogen-containing compounds” (BASF Aktiengesellschaft, priority 1976, dated 1981) are percentage damage and pest or weed control values, retold here.

What all share (test): Herbicidal action (Example 25)
Common to all, as to assay type: in vivo

One test relates to Sorghum halepense. The conditions noted are these: preemergence. The method, boiled down:
(§1)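 Pre- and postemergence greenhouse test; sandy loam, species sown separately; aq. suspension/emulsion via fine nozzles; post at 2–8 cm height; sprinkler irrigated; 12°-25° C. or 18°-35° C. by species; visual score 0–100 at 2–6 wk.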

Another test has as its system Matricaria chamomilla. As to conditions: preemergence, 2.0 kg/ha. The method, boiled down:
as §1

Another test concerns Poa annua. As to conditions: Poa annua, pre-emergence, read-out: percentage damage. The method, boiled down: as §1
The test system of another test is Stellaria media. As to conditions: preemergence, 2.0 kg/ha. The method, boiled down:
as §1

In a further test the test system is Sinapis alba. As to conditions: pre-emergence, read-out: percentage damage. The method, boiled down:
as §1

The test system of the next test is Panicum virgatum. The conditions noted are these: preemergence, 2.0 kg/ha. The method, boiled down: as §1
A further test concerns Setaria faberii. The conditions noted are these: preemergence. The method, boiled down:
as §1

Regarding `c1ccc(N2N=NC3C4CC(C5N=NC45)C32)cc1` (stereo not shown) [drawing 415], the percentage damage is on record as 75 percentage damage in the test with Sorghum halepense (2.0 kg/ha); 100 percentage damage with Sorghum halepense (4.0 kg/ha); 95 percentage damage in the test on Matricaria chamomilla; 100 percentage damage with Stellaria media; 100 percentage damage in the test on Panicum virgatum; 97 percentage damage in the test on Setaria faberii (2.0 kg/ha). The compound further had a percentage damage in the test with Setaria faberii (4.0 kg/ha) of 100 percentage damage. The pest or weed control at 2000 g/ha in the test with Poa annua (preemergence, 2.0 kg/ha) is 95%; with Sinapis alba (preemergence, 2.0 kg/ha), 99%. In the test with Sinapis alba (preemergence, 4.0 kg/ha), the pest or weed control at 4000 g/ha is 100%.

Turning to `c1ccc(N2C3C4CC(C5N=NC45)C32)cc1` (stereo not shown) [drawing 416], the percentage damage is on record as 74 percentage damage in the test on Sorghum halepense (2.0 kg/ha); 78 percentage damage in the test with Sorghum halepense (4.0 kg/ha); 95 percentage damage in the test with Matricaria chamomilla; 100 percentage damage in the test with Stellaria media; 100 percentage damage in the test with Panicum virgatum; 59 percentage damage with Setaria faberii (2.0 kg/ha). Besides, the percentage damage in the test on Setaria faberii (4.0 kg/ha) was found to be 65 percentage damage. Besides, the pest or weed control at 2000 g/ha in the test with Poa annua amounted to 57%; in the test on Sinapis alba, 74%.
